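Cells were grown in 96-well plates and exposed to each compound for 48 hours at five concentrations; endpoints were interpolated linearly between bracketing concentrations, or set to the highest concentration if not reached. Definition used: TGI = concentration required for complete inhibition of growth.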
Columns and labels:
Assay in all cases: NCI tumour cell line growth inhibition, 48 h
DMS 114 small cell lung = system: DMS 114 small cell lung
LXFL 529 NSCLC = system: LXFL 529 NSCLC
XF 498 CNS = system: XF 498 CNS
DMS 273 small cell lung = system: DMS 273 small cell lung
SNB-78 CNS = system: SNB-78 CNS
DLD-1 colon = system: DLD-1 colon
SN12K1 renal = system: SN12K1 renal
P388 leukemia = system: P388 leukemia
P388/ADR leukemia = system: P388/ADR leukemia

In the case of `OC(CCl)CN1CC[N+]2(CC1)CC[N+]1(CCN(CC(O)CCl)CC1)CC2` (stereo not drawn), the TGI (DMS 114 small cell lung) is reported as greater than 50 µM, the TGI (LXFL 529 NSCLC) is reported as greater than 50 µM and the TGI (XF 498 CNS) is reported as greater than 50 µM. It also gave a TGI (DMS 273 small cell lung) greater than 50 µM.

`Cc1ccc(S(=O)(=O)N/N=C\c2c3ccccc3[n+](C)c3ccccc23)cc1` gave a TGI (DMS 114 small cell lung) greater than 100 µM, a TGI (SNB-78 CNS) greater than 100 µM and a TGI (DLD-1 colon) greater than 100 µM. The TGI (DMS 273 small cell lung) was 64.7 µM.

`Nc1ncc2c(n1)-c1ccccc1OC2` gave a TGI (DMS 114 small cell lung) greater than 100 µM, a TGI (SNB-78 CNS) greater than 100 µM and a TGI (DLD-1 colon) greater than 100 µM. For the same compound, the TGI (XF 498 CNS) was greater than 100 µM, the TGI (SN12K1 renal) was greater than 100 µM and the TGI (DMS 273 small cell lung) was greater than 100 µM. It also gave a TGI (P388 leukemia) greater than 100 µM.

Compound `COc1ccc(C2=NN(c3nsc4ccccc34)C(=O)CC2)cc1` has a TGI (DMS 114 small cell lung) greater than 100 µM, a TGI (SNB-78 CNS) greater than 100 µM and a TGI (LXFL 529 NSCLC) greater than 100 µM. The TGI (DMS 273 small cell lung) was greater than 100 µM.

With `CSc1nc(-c2ccccc2)nc(=[N+]2CCOCC2)s1` the TGI (SNB-78 CNS) was greater than 100 µM, the TGI (DLD-1 colon) was greater than 100 µM and the TGI (LXFL 529 NSCLC) was greater than 100 µM. It also gave a TGI (DMS 273 small cell lung) greater than 100 µM.

With `CC1=C(C(=O)NCc2ccccc2)C(c2ccco2)C(C(=O)NCc2ccccc2)=C(C)N1` the TGI (DMS 114 small cell lung) was greater than 100 µM, the TGI (SNB-78 CNS) was greater than 100 µM and the TGI (DLD-1 colon) was greater than 100 µM. For the same compound, the TGI (LXFL 529 NSCLC) was greater than 100 µM, the TGI (XF 498 CNS) was greater than 100 µM and the TGI (DMS 273 small cell lung) was greater than 100 µM.

`O=[N+]([O-])c1ccc(Nc2cccc3c2[nH]c2c(-c4ccccc4)nccc23)c([N+](=O)[O-])c1` showed a TGI (DMS 114 small cell lung) greater than 100 µM, a TGI (SNB-78 CNS) greater than 100 µM and a TGI (P388/ADR leukemia) greater than 100 µM. The TGI (DLD-1 colon) was greater than 100 µM, the TGI (XF 498 CNS) was greater than 100 µM and the TGI (DMS 273 small cell lung) was greater than 100 µM. The TGI (P388 leukemia) was greater than 69.2 µM.

Work on `O=S(=O)(O)c1cc(N=[N+]([O-])c2ccc(N=Nc3ccccc3)cc2S(=O)(=O)O)ccc1/C=C/c1ccc(N=[N+]([O-])c2ccc(N=Nc3ccccc3)cc2S(=O)(=O)O)cc1S(=O)(=O)O` yielded a TGI (DMS 114 small cell lung) greater than 100 µM, a TGI (SNB-78 CNS) greater than 100 µM and a TGI (DLD-1 colon) greater than 100 µM. It also gave a TGI (XF 498 CNS) greater than 100 µM, a TGI (SN12K1 renal) greater than 31.6 µM and a TGI (DMS 273 small cell lung) greater than 100 µM. It also gave a TGI (P388 leukemia) greater than 100 µM.
